Consider 9 molecules from patent US5017689A, “Dynorphin analogs specific for kappa opioid receptors” (Arizona Technology Development Corporation, priority 1989, dated 1991).

Experiment [1] has as its target T1, δ opioid receptors (Rattus norvegicus, UniProt P33533).
T1 construct: membranes prepared from whole rat brain (less cerebellum); from tissue; host or cells: whole rat brain (less cerebellum) membranes
Briefly: Radioligand binding, [3H]DPDPE, brain membranes. Conditions: rat brain homogenate, 1.0 nM radioligand.
Method: (§2) Samples were incubated for 1.0 h at 25° C. before filtration through glass fiber filter strips (GF/B, Whatman) pretreated with 0.1% polyethylenimine. Nonspecific binding (=20% of total binding) was defined as binding measured in the presence of 1.0 μM Dyn A1-13.

Experiment [2] deals with μ opioid receptors (Rattus norvegicus, UniProt P33535). Briefly: biochemical.
Method: as §2
Experiment [3] has as its target T2, κ opioid receptors (Cavia porcellus, UniProt P41144).
T2 construct: from tissue; host or cells: whole guinea pig brain membranes
Briefly: Radioligand binding, inhibition of [3H]U-69593 binding to guinea pig brain membrane.

The test system of experiment [4] is guinea pig ileum (GPI) longitudinal muscle/myenteric plexus preparation. Description: Guinea pig ileum (GPI) longitudinal muscle/myenteric plexus bioassay. Format: cell-based. The method, then:
The known guinea pig ileum (GPI) longitudinal muscle/myenteric plexus preparation was used for in vitro bioassays (Kosterlitz, H.W., Lydon, R.J., and Watt, A.J., (1970), Br. J. Pharmacol., 39, 398-413). The tissues were suspended under a final tension of 1 g in organ baths, bathed with Krebs buffer (NaCl 118 mM, KCl 4.7 mM, CaCl2 2.5 mM, KH2 PO4 1.19 mM, MgSO4 1.18 mM, NaHCO3 25 mM, and glucose 11.48 mM), maintained at 37° C. and aerated with 95% O2 /5% CO2. Electrical stimuli were 0.4 msec pulses of supramaximal voltage, at a rate 6/min. Isometric contractions were measured via strain gauge force transducers on chart recorders. The mouse vas deferens (MVD) preparation was also performed as described by Hughes et al. (Hughes, J., Kosterlitz, H.W., and Leslie, F.M., (1975), Br. J. Pharmacol., 53, 371-381). The Krebs buffer was made as above, but without magnesium and the tissues were suspended under a final tension of 500 mg. Pulse duration was 2 msec. Dose-response testing in all preparations was carried out in a cumulative fashion. The compounds were tested for intrinsic agonist activity in the two in vitro bioassays. […] Ke values were calculated according to the formula: […]
(§1) where [Ant] is the concentration of the antagonist, and DR is the dose ratio (i.e., IC50 after antagonism divided by the IC50 before antagonist activity was measured).

For experiment [5], the system named is mouse vas deferens (MVD) preparation. Briefly: Mouse vas deferens (MVD) bioassay. Format: cell-based. The method, then:
The known guinea pig ileum (GPI) longitudinal muscle/myenteric plexus preparation was used for in vitro bioassays (Kosterlitz, H.W., Lydon, R.J., and Watt, A.J., (1970), Br. J. Pharmacol., 39, 398-413). The tissues were suspended under a final tension of 1 g in organ baths, bathed with Krebs buffer (NaCl 118 mM, KCl 4.7 mM, CaCl2 2.5 mM, KH2 PO4 1.19 mM, MgSO4 1.18 mM, NaHCO3 25 mM, and glucose 11.48 mM), maintained at 37° C. and aerated with 95% O2 /5% CO2. Electrical stimuli were 0.4 msec pulses of supramaximal voltage, at a rate 6/min. Isometric contractions were measured via strain gauge force transducers on chart recorders. The mouse vas deferens (MVD) preparation was also performed as described by Hughes et al. (Hughes, J., Kosterlitz, H.W., and Leslie, F.M., (1975), Br. J. Pharmacol., 53, 371-381). The Krebs buffer was made as above, but without magnesium and the tissues were suspended under a final tension of 500 mg. Pulse duration was 2 msec. Dose-response testing in all preparations was carried out in a cumulative fashion. The compounds were tested for intrinsic agonist activity in the two in vitro bioassays. Thus, concentrations showing intrinsic activity for each analog were tested in the presence of naloxone (1000 nM) to define opioid activity. To further define the opioid selectivity of the agonist effect, the δ selective antagonist ICI 174,864 (Cotton, R., Giles, M.G., Miller, L., Shaw, J.S., and Timms, D. (1984), Eur. J. Pharmacol., 97, 331-332) was utilized in the MVD, and the μ selective antagonists CTAP (Pelton, J.T., Kazmierski, W., Gulya, K., Yamamura, H.I., and Hruby, V.J. (1986), J. Med. Chem., 29, 2370-2375) or CTP (Pelton, J.T., Gulya, K., Hruby, V.J., Duckles, S., and Yamamura, H.I. (1985) Proc. Natl. Acad. Sci. U.S.A., 82, 236-239) were employed in the GPI, all at 1000 nM. Ke values were calculated according to the formula: […]
as §1

For experiment [6] the following is noted: administered i.c.v.; cited from earlier work.
Experiment [7] has as its system kappa opioid receptor. The settings on record: cited from earlier work.
The conditions of experiment [8]: administered i.c.v.; cited from earlier work. The source holds these as a separate data set.
[9] abbreviates: selectivity, ratio of IC50 values.

Where two headings read alike, the source gives them in different places. Bridge positions count the residues as written; N and C are the ends. Peptide text beside a SMILES is read from it.

T2 sequence (P41144 whole entry): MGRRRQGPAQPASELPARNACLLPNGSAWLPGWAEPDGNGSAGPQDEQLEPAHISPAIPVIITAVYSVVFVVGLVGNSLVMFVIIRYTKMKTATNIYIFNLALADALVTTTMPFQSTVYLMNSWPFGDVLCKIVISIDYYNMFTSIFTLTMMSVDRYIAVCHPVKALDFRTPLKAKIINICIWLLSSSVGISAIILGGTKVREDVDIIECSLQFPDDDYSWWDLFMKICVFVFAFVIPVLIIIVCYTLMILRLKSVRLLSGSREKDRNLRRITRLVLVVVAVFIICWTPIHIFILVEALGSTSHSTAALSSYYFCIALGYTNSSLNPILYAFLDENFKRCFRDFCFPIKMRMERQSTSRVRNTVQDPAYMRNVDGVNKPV
μ opioid receptors, sequence (P33535 whole entry): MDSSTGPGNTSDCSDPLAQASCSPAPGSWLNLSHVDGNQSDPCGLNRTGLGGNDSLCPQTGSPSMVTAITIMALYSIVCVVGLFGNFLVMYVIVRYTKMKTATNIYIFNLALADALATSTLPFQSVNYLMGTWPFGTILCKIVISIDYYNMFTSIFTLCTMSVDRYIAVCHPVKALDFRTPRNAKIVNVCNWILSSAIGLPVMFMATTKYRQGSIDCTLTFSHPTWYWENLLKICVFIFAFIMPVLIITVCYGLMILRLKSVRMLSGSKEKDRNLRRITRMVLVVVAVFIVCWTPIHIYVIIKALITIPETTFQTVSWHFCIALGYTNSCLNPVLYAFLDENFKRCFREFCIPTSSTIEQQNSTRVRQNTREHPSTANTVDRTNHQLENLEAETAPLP
T1 sequence (P33533 whole entry): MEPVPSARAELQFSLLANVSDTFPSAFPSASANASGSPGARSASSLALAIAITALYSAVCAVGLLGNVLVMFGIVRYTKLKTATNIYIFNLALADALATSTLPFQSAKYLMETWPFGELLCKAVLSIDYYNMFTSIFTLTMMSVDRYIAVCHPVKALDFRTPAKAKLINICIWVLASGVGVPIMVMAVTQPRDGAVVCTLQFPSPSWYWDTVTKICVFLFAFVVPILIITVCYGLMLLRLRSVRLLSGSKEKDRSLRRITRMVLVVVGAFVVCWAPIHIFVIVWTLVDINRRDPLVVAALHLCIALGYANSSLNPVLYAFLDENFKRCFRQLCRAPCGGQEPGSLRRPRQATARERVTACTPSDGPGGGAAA

A word on the IC50: it is the midpoint of a concentration-inhibition curve. In the case of `CC[C@H](C)[C@H](NC(=O)[C@H](CCCN=C(N)N)NC(=O)[C@H](CCCN=C(N)N)NC(=O)[C@H](CC(C)C)NC(=O)[C@H](Cc1ccccc1)NC(=O)CNC(=O)CNC(=O)[C@@H](N)Cc1ccc(O)cc1)C(=O)N[C@@H](CCCN=C(N)N)C(=O)N1CCC[C@H]1C(=O)N[C@@H](CCCCN)C(=O)N[C@@H](CC(C)C)C(=O)N[C@@H](CCCCN)C(N)=O` [Dyn A1-13NH2, reference compound], the values for the half-inhibitory concentration (IC50) in experiment [1], in experiment [2] and in experiment [3] were 2.96 nM, 1.33 nM and 0.109 ± 0.003 nM, respectively.

In the case of `CC(C)C[C@@H]1NC(=O)[C@H](CCCCN)NC(=O)[C@@H]2CCCN2C(=O)[C@H](CCCN=C(N)N)NC(=O)[C@@H](NC(=O)[C@H](CCCN=C(N)N)NC(=O)[C@H](CCCN=C(N)N)NC(=O)[C@H](CC(C)C)NC(=O)[C@H](Cc2ccccc2)NC(=O)CNC(=O)CNC(=O)[C@@H](N)Cc2ccc(O)cc2)CSSC[C@@H](C(N)=O)NC1=O` [Compound 3], the concentration for half-maximal inhibition (IC50) in experiment [1] was 3.97 ± 0.96 nM; in experiment [2], 0.98 ± 0.12 nM.

With `CC(C)C[C@@H]1NC(=O)[C@H](CCCCN)NC(=O)[C@@H]2CCCN2C(=O)[C@H](CCCNC(=N)N)NC(=O)[C@H](NC(=O)[C@H](CCCNC(=N)N)NC(=O)[C@H](CCCNC(=N)N)NC(=O)[C@H](CC(C)C)NC(=O)[C@H](Cc2ccccc2)NC(=O)CNC(=O)CNC(=O)[C@@H](N)Cc2ccc(O)cc2)CSSC[C@@H](C(N)=O)NC1=O` [Compound 4], the IC50 in experiment [1] was 104 ± 1.86 nM; in experiment [2] it was 10.3 ± 3.9 nM.

For the molecule `CC(C)C[C@H](NC(=O)[C@H](Cc1ccccc1)NC(=O)CNC(=O)CNC(=O)[C@@H](N)Cc1ccc(O)cc1)C(=O)N[C@@H](CCCNC(=N)N)C(=O)N[C@@H](CCCNC(=N)N)C(=O)N[C@@H]1CSSC[C@H](C(N)=O)NC(=O)[C@H](CC(C)C)NC(=O)[C@H](CCCCN)NC(=O)[C@@H]2CCCN2C(=O)[C@H](CCCNC(=N)N)NC1=O` [Compound 5], the IC50 in experiment [4] was 1.75 nM; in experiment [3] (κ, guinea pig brain homogenate, 1.0 nM radioligand, read-out: IC50 (nM) [3H]-U-69,593), 0.11 ± 0.009 nM; in experiment [5], 19.5 nM. Also, the “Ke (nM) for: NLX” value in experiment [4] (naloxone 1000 nM) worked out at 233 nM; in experiment [5] (naloxone 1000 nM) it was 18.2 nM. Further, the δ/κ in experiment [3] (setting [9]) amounted to 130. Moreover, the μ/κ in experiment [3] (setting [9]) was determined as 3. In experiment [5] (δ antagonist ICI 174,864 1000 nM), the “Ke (nM) for: ICI” value amounted to 1000 nM. Also, the “Ke (nM) for: CTAP” value in experiment [5] (μ antagonist CTAP 1000 nM) came to 1430 nM.

Regarding `CC(C)C[C@H](NC(=O)[C@H](Cc1ccccc1)NC(=O)CNC(=O)CNC(=O)[C@@H](N)Cc1ccc(Br)cc1)C(=O)N[C@@H](CCCNC(=N)N)C(=O)N[C@@H](CCCNC(=N)N)C(=O)N[C@H](C)C(=O)N[C@@H](CCCNC(=N)N)C(=O)N1CCC[C@H]1C(=O)N[C@@H](CCCCN)C(N)=O` [Compound 7, [p-BrPhe^1, D-Ala^8]Dyn A1-11NH2], the IC50 is 1060 ± 40 nM in experiment [1], 47 ± 5.1 nM in experiment [2] and 1.7 ± 0.14 nM in experiment [3].

As for `C[C@H]1NC(=O)[C@H](CCCNC(=N)N)NC(=O)[C@H](CCCNC(=N)N)NC(=O)[C@@H](NC(=O)[C@H](Cc2ccccc2)NC(=O)CNC(=O)CNC(=O)[C@@H](N)Cc2ccc(O)cc2)CSSC[C@@H](C(N)=O)NC(=O)[C@@H]2CCCN2C(=O)[C@H](CCCNC(=N)N)NC1=O` [Compound 2], the IC50 was 1.63 ± 0.53 nM in experiment [1], 0.27 ± 0.14 nM in experiment [2] and 0.28 ± 0.036 nM in experiment [3].

On to [D-pro^10 ]Dyn A1-11 -OH [DPDYN], for which, in experiment [6], the “activity against thermal stimulus” value is listed as “did not show any activity”. For the same molecule, the reported binding affinity result in experiment [7] (against the kappa ligand [3H]Bremazocine) is “about 0.032 nM”. The “κ vs. μ and κ vs δ selectivities” value in experiment [7] is listed as “high”. Moreover, the “effect against chemical pain” value in experiment [8] is reported as “dose-related effect”.

Turning to `CC[C@H](C)[C@H](NC(=O)[C@H](CCCNC(=N)N)NC(=O)[C@H](CCCNC(=N)N)NC(=O)[C@H](CC(C)C)NC(=O)[C@H](Cc1ccccc1)NC(=O)CNC(=O)CNC(=O)[C@@H](N)Cc1ccccc1)C(=O)N[C@@H](CCCNC(=N)N)C(=O)N1CCC[C@@H]1C(=O)N[C@@H](CCCCN)C(N)=O` [Compound 6, [Phe^1, D-Pro^10]Dyn A1-11NH2], the IC50 was found to be 390 ± 52 nM in experiment [1], 120 ± 22 nM in experiment [2] and 2.4 ± 0.56 nM in experiment [3].

Take `CC[C@H](C)[C@@H]1NC(=O)[C@H](CCCN=C(N)N)NC(=O)[C@H](CCCN=C(N)N)NC(=O)[C@@H](NC(=O)[C@H](Cc2ccccc2)NC(=O)CNC(=O)CNC(=O)[C@@H](N)Cc2ccc(O)cc2)CSSC[C@@H](C(N)=O)NC(=O)[C@@H]2CCCN2C(=O)[C@H](CCCN=C(N)N)NC1=O` [Compound 1] (H-YGGFCRRIRPC-NH2; disulfide 5-11): the IC50 stood at 18.6 ± 7.5 nM in experiment [1], 2.3 ± 0.72 nM in experiment [2] and 0.39 ± 0.06 nM in experiment [3].
